Values quoted from earlier work, collected in patent US20110165241A1, “BAZEDOXIFENE FORMULATIONS WITH ANTIOXIDANTS” (Wyeth LLC, priority 2009, published 2011).

Legend:
[1] = test system: ovariectomized rat model of osteopenia; details: in vivo
[2] = test system: MCF-7 cell line (human breast cancer cell line)
[3] = test system: uterine response; details: in vivo

Q: For Cc1c(-c2ccc(O)cc2)n(Cc2ccc(OCCN3CCCCCC3)cc2)c2ccc(O)cc12 [bazedoxifene, 1-[4-(2-azepan-1-yl-ethoxy)-benzyl]-2-(4-hydroxy-phenyl)-3-methyl-1H-indol-5-ol], which “effect on bone loss and cholesterol” value [1] is on record?
A: Its value is “estrogen agonist-like effect in preventing bone loss and reducing cholesterol”.

Q: And the “estrogen receptor activity in MCF-7 cells” value [2]?
A: The value was “behaves as an estrogen antagonist”.

Q: And the “stimulation of uterine response” value [3]?
A: Its value is “little or no stimulation of uterine response”.
